Source: patent publication US6525089B1, “Pharmaceutical composition containing decursin” (Binex Co., Ltd., priority 1998, dated 2003)

Columns and labels:
[1] = system: SD rats; assay: BUN and creatinine in blood as markers of nephrotoxicity, cisplatin-treated rats; assay type: in vivo, rat
Method: The detailed test methods were summarized hereinafter. BUN (blood urea nitrogen) and creatinine as a marker of nephrotoxicity in the blood, sGPT as a marker of hepatotoxicity, occult blood in the urine, bilirubin, urobilinogen, ketone, protein, nitrite, glucose, pH and specific gravity were determined as follows. […] BUN value was measured using the BUN measurement kit (Youngdong Pharm. Co. Ltd., Korea) in the following procedure. 0.1 ml of urease was added to 20 ml of buffer solution to obtain enzymatic buffer solution. […] The two test tubes were incubated at 37° C. for 15 minutes. Then 2 ml of color-forming solution was added into each test tube and incubated again at 37° C. for 5 minutes. The absorbance was measured at 570 nm to determine the amount of BUN. (2) Measurement of Creatinine Creatinine value was measured using the creatinine measurement kit (Youngdong, Pharm. Co. Ltd., Korea) in the following procedure. 4 ml of tungsten solution was added in 0.5 ml of serum sample to be tested, and stirred vigorously and then left for 10 minutes. […]. Every 3 ml of the supernatant, reference solution of creatinine and distilled water (for blank test) was put to the separate test tubes, followed by the addition of picrate solution (1 ml each). Then 0.5 ml of 1.4N NaOH was added in each tube and stirred to measure the absorbance at 515 nm exactly after the correct lapse of 15 minutes. A total of 10 male SD rats (body weight: 200 g) were used for this experiment. […] The animals were sacrificed and again weighed four days after treatment. […] Blood samples were also taken and left to sit for 30 minutes to isolate the sera, which was used to determine BUN, creatinine and sGPT values as markers of […].

[2] = system: ICR mice; assay: BUN and MDA in blood and MDA in renal tissue, alloxan-treated mice; assay type: in vivo; details: alloxan 75 mg/kg i.v. + decursin 50 mg/kg orally for 10 days
Method: 2 days after ICR mice were given alloxan (75 mg/kg, i.v.), their glucose levels at fasting were measured to select high-glucose mice. The high-glucose mice were divided into two groups; physiological saline solution was given to one group, while decursin was orally administered to the other group at a dose of 50 mg/kg for 10 days. The alloxan-free group was also orally given physiological saline solution for 10 days. The body weighs were checked periodically, together with urinary tests. To isolate their sera and kidney, mice were slightly anesthetized with ether and their abdomens were dissected. The blood samples were collected from heart to isolate the sera. The kidney was perfused with 0.9% NaCl and isolated after removal of the blood. Then the weight of right kidney was measured. Further, to measure the protein amount from the kidney tissues, these tissues were assayed according to the Bradford method using Bio-Rad protein assay kit in the presence of bovine serum albumin as a reference standard. To measure the MDA in the kidney tissues, 0.4 ml of 10% sodium dodecylsulfate was added to 0.5 ml of 10% kidney-tissue homogenization solution and left in water bath at 37° C. for 30 minutes; With the subsequent addition of 0.1N-HCl (2 ml) and 0.67% TBA (1 ml), the mixture was voltexed and left in boiling water bath for 30 minutes. The mixture was further cooled in ice bath for 2˜3 minutes to stop the reaction. Then 2 ml of n-butanol was added to the mixture, stirred well and centrifuged at 3000 rpm for 10 minutes. The supernatant was collected to measure the absorbance at 532 nm. 10 μg/ml tetraethoxypropane (TEP) was employed as a reference standard. To measure the MDA in sera, 0.8% thiobarbituric acid (TBA) was added to 0.5 ml of sera and left in boiling water bath for 30 minutes. The mixture was further cooled in ice bath for 2˜3 minutes to stop the reaction. The supernatant was collected to measure the absorbance at 532 nm. 10 μg/ml TEP was employed as a reference standard.
Mice were orally given decursin at a dose of 50 mg/kg for 10 days continuously. Then various parameters such as BUN and MDA in the blood as a marker of renal failure were measured, together with urinary test. When […] (table 4), the BUN value of single alloxan-treated group, 17.4±3.7 mg/dl was recovered to the normal level (4.8±0.6 mg/dl) by the treatment of decursin. The MDA value of single alloxan-treated group, 0.51±0.07, was reduced to 0.36±0.03 by the treatment of decursin, which was similar to a normal control group. Thus it was noted that the damage in the kidney was completely recovered. Since the reduction of both MDA values in the blood and kidney tissues may be clinically reasonable and desirable, the MDA value in the kidney tissues was measured. As a result, the MDA value in the kidney tissues of a single alloxan-treated group, 13.24±5.93, was reduced to 5.63±0.99 by the treatment of decursin, which was lower than that of normal control group (8.44±1.01).

[3] = system: U-937 cells; assay: Esterase activity test: α-naphthyl acetate esterase; assay type: cell-based, human; details: percentage of cells showing activity
Method: To determine α-naphthyl acetate esterase activity in the esterase activity test, the cultured solution of U-937 cells was pelleted by centrifugation at 2000 rpm for 5 minutes, followed by the addition of 100 μl PBS to prepare a cell-concentrated solution. A drop of the cell solution was put on a slide glass and dried for more than 1 hour. Then 40 ml of deionized water was preheated at 37° C. 1 ml of […] solution was mixed with 1 ml of Fast Blue BB base solution and left for 2 minutes. The mixture, being turned to yellow color with thick brown, was added to 40 ml of the preheated deionized water. After the addition of 5 ml of TRIZMAL TM 7.6 buffer solution (Sigma Co. 870-2) and 1 ml of α-naphthyl acetate solution, the resulting solution, which was turned to green color, was poured into a petri dish. The cells on a slide glass were fixed with citrate-acetone-formaldehyde solution (CAF solution) at room temperature. The cells were soaked in the previously prepared solution and incubated at 37° C. for 30 minutes at a dark place. The cells were completely washed with deionized water for more than 2 minutes and counterstained with hematoxylin solution for 2 minutes, washed with tap water and dried in the air. After completely dried, the cells were observed under a microscope to determine the blackish cell numbers.
Thus it was considered that the cells were differentiated into macrophage.like cells by the action of decursin.

[4] = post-treated: decursin 17.4 mg/kg i.p. 1, 24, 48 h after cisplatin 5.8 mg/kg i.p.
[5] = pre-treated: decursin 17.4 mg/kg i.p. 1, 24, 48 h prior to cisplatin 5.8 mg/kg i.p.

With `CC(C)=CC(=O)O[C@H]1Cc2cc3ccc(=O)oc3cc2OC1(C)C` [decursin] the BUN [1, 4] was 55.2 ± 2.1 mg/dL, the Creatinine [1, 4] was 2.08 ± 0.52 mg/dL and the “reduction of nephrotoxicity (creatinine) compared with the control group receiving cisplatin” value ([1]; post-treatment group) was “about 40%”. The BUN [1, 5] was 17.5 ± 2.8 mg/dL, the Creatinine [1, 5] was 0.74 ± 0.29 mg/dL and the BUN [2] was 4.8 ± 0.6 mg/dL. The MDA in blood [2] was 0.36 ± 0.03 µg/mL, the “MDA in renal tissue” value [2] was 5.63 ± 0.99 µg/g and the “α-Naphtylacetate esterase Activity (%)” value [3] was 83%. The “α-Naphtylacetate esterase Activity (%)” value ([3]; listed as Decursin) was 83.3 ± 3.0%.
